Tests used:
[1] = test system: maternal Snrpn-EGFP MEFs; experiment: High content screening / concentration response of Snrpn-EGFP unsilencing; assay type: cell-based, mouse; settings: mS-EGFP/p+ MEFs
Procedure: High content screenings of small molecules were performed as described in Huang, et al. Nature 481, 185-189 (2012). HCS comprises a 384-well high-content screen using primary mouse embryonic fibroblasts (MEFs) from m^S-EGFP/p^+, and searched for drug-like molecules that could unsilence the maternal S-EFGP allele. […] To perform the screen, primary MEFs were isolated from E12.5-14.5 embryos of m^S-EGFP/p^+ and cultured for 7 days in Dulbecco's modified Eagle's media supplemented with 10% fetal bovine serum, 100 Units/mL penicillin and 100 μg/mL streptomycin, at 37° C. and 5% CO2. One day before treatment with small molecules, 5,000 cells per well were plated onto 384-well plates. The cells were then treated with compounds (10 μM for 72 hours) from multiple small molecule libraries (FIG. 1f and FIG. 2). In total, 9,157 small molecules were screened in quadruplicate, normalizing values to vehicle-treatment (0.2% DMSO) (Table 1). The unsilencing of Snrpn-EGFP was determined three days after drug treatment. The immunofluorescence-processed fibroblasts were imaged for Hoechst and Alexa Fluor 488 fluorescence using a BD Pathway 855 high content imaging microscope. Antibody-enhanced Snrpn-EGPF fluorescence intensity was determined in drug-treated cells individually and normalized to cells treated with vehicle control. In order to identify potentially active compounds, an arbitrary cutoff of 125% was used where 100% indicates basal fluorescence in the vehicle-treated MEFs. Analysis was performed using Cell Profiler with custom macro and algorithms. Potential active drugs were defined as the increase in drug-mediated EGFP fluorescence consistently observed across quadruplicate wells and minimal or no cytotoxicity measured by Hoechst-stained nuclear structure (and the changes in total number of cells). After initial validation of all potential active drugs (e.g., to determine whether active compounds show inherent fluorescence, the wild-type fibroblasts were also treated), only effective hit compounds further validated in dose-response tests to determine relative efficacy (Emax) and potency (EC50). The dose-response results were analyzed by using Graphpad Prism (Graphpad Software). The calculated EC50 values (potencies) and estimated Emax (efficacy, Y-value top plateau) enabled comparative analyses of the relative potency and efficacy of the identified compounds.
Three days after drug treatment, the cells were fixed at 4% paraformaldehyde at room temperature for 10 min, followed by rinsing with 1× PBS. The cells were permeabilized with 0.5% Triton X-100 in 1× PBS at room temperature for 10 min, followed by blocking with 5% normal goat serum in 0.1% Triton X-100 in 1× PBS at room temperature for 30 minutes. Primary rabbit anti-GFP antibody (1:1000, Novus Biologicals cat. no. NB100-1770) was incubated at 4° C. overnight. The next day, the cells were rinsed with 1× PBS and incubated with goat anti-rabbit Alexa Fluor 488 (Invitrogen cat. no. A-11008) and Hoechst at room temperature. One hour after incubation, the cells were rinsed with 1× PBS and imaged for Hoechst and Alexa Fluor 488 fluorescence using a BD Pathway 855 high content imaging microscope.
It is not feasible to design a screen for noncoding RNA. Alternatively, SNRPN/Snprn is paternally expressed but maternally silenced in all human and mouse tissues. The allele-specific expression of human SNRPN is regulated by the PWS-IC, which also controls the expression of host transcripts for SnoRNAs, including the SNORD116 cluster between SNRPN and UBE3A. see Le Meur, E. et al., Dev. Biol. 286, 587-600 (2005). Thus, the Snrpn-EGFP fusion protein (hereafter S-EGFP) was used as a marker for high content screening (HCS). It was determined that small molecules that can unsilence S-EGFP would also be effective in reactivating the host transcript of SNORD116. […]

[2] = test system: human PWS fibroblasts; experiment: Chromatin immunoprecipitation (ChIP-qPCR) of H3K9me2/H3K9me3; assay type: cell-based; settings: in words
Procedure: Histone methylations on the SNRPN locus in human fibroblasts were analyzed by chromatin immunoprecipitation assay (ChIP) using the protocol as previously reported (see Fulmer-Smentek et al., Human molecular genetics 10, 645-652 (2001)). ChIP assay was performed using ChIP-IT Express magnetic kit (Active Motif) according to the manufacturer's instructions with modification for the fixation and reverse-crosslinking steps. Briefly, native chromatin was prepared without fixation and enzymatic digestions to average 150-500 bp sized chromatin. 20 μg of chromatin was added to the specific antibodies (2 μg) or species control isotype antibodies for each immunoprecipitation reaction. The antibody-chromatin complexes were bound to protein G magnetic beads for recovering chromatin immunoprecipitates. RNase- and proteinase K-treated DNA was purified using PCR purification columns (Promega). DNA recovery was quantified by real time PCR performed on the LightCycler480 instrument (Roche) using SsoAdvanced Universal SYBR green Supermix (Biorad). Antibodies were anti-rabbit acetylated H3 (Millipore 06-599), anti-mouse monoclonal Histone H3 dimethyl K9 (Abcam 1220) and Histone H3 trimethyl K9 (Millipore, 07-442) antibodies. qPCR reactions were performed with the following cycling parameters: at 95° C./5 min followed by 40 cycles of 95° C./30 sec, 60° C./60 sec. Data was normalized to the total input.

[3] = test system: PWS-IC; experiment: Bisulfite genomic sequencing of PWS-IC, human PWS cells; assay type: cell-based
Procedure: Genomic DNA was isolated from human PWS fibroblasts or mouse tissues. DNA (1 μg) was then treated by bisulfite using the Epi-Tect bisulfite kit (Qiagen), and 125 ng input DNA was used per PCR amplification. PCR products were sub-cloned into pGEM-T easy vector (Promega) and an average of 15 clones were sequenced. DNA sequencing results were analyzed using BISMA web-based analysis platform with a setting for individual clones with <95% bisulfite conversion and <90% sequence identity to be excluded in the analysis.

| Compound | activation of S-EGFP [1] | level of H3K9me2 (and H3K9me3) in the PWS-IC [2] | DNA methylation of the PWS-IC [3] |
| --- | --- | --- | --- |
| CCCC(CCC)C(=O)O [valproic acid, reference compound] | did not have an effect |  |  |
| O=C(CCCCCCC(=O)Nc1ccccc1)NO [vorinostat, suberoylanilide hydroxamic acid, reference compound] | did not have an effect |  |  |
| Nc1ccccc1NC(=O)c1ccc(CNC(=O)OCc2cccnc2)cc1 [entinostat, reference compound] | did not have an effect |  |  |
| Nc1ncn([C@H]2C[C@H](O)[C@@H](CO)O2)c(=O)n1 [5-Aza-dC, 5-aza deoxycytidine, reference compound] |  | reduced | significantly decreased |
| CC(/C=C/C(=O)NO)=C\[C@@H](C)C(=O)c1ccc(N(C)C)cc1 [trichostatin A, reference compound] | did not have an effect |  |  |
| C[S+](CC[C@H](N)C(=O)O)C[C@H]1O[C@@H](n2cnc3c(N)ncnc32)[C@H](O)[C@@H]1O (some centres unmarked) [S-adenosyl-methionine, reference compound] | did not have an effect |  |  |
| COc1cc2nc(N3CCCN(C)CC3)nc(NC3CCN(Cc4ccccc4)CC3)c2cc1OC [BIX01294, reference compound] | did not have a substantial effect |  |  |
